# Peptide text beside a SMILES is read from it.
# Columns and labels:
# E. coli ATCC 25922 = test: SYTOX green uptake assay (membrane permeabilization); assay type: cell-based, Escherichia coli; details: 12.5 µM (twofold above the MIC), 1 h, 37 °C, PBS
# Protocol: SG is impermeant to live cells and when the cell membrane is damaged, this dye penetrates into the cell and binds to intracellular DNA, due to its high-affinity to nucleic acids, leading to an increase in fluorescence. Exponentially growing bacteria (6 × 10^5 cfu mL^−1) were resuspended in PBS after centrifugation (1000 × g, 10 min, 4 °C) and washing steps. About 792 μL of the bacterial suspension was pre-incubated with 8 μL of 100 μM SG during 30 min at 37 °C in the dark. […] Results correspond to a representative experiment with negative (PBS) and positive (melittin) controls. Three independent experiments were performed.
# [1] = system: Escherichia coli ATCC 25922; test: Antimicrobial activity, MIC by twofold serial dilution; assay type: cell-based; details: purified peptide; MH broth, 18 h, 37 °C, A630; average of three independent experiments in triplicate
# From the text: (§1) Lysogeny Broth (LB) was used for cultures of Acinetobacter baumannii ATCC 19606, Enterococcus faecalis ATCC 29212, Escherichia coli ATCC 25922, Klebsiella pneumoniae ATCC 13883, Pseudomonas aeruginosa ATCC 27853, and S. aureus ATCC 25923. Brain Heart Infusion (BHI) broth was used for cultures of Listeria ivanovii Li 4pVS2 and Streptococcus pyogenes ATCC 19615. Yeast peptone dextrose (YPD) medium was used for Candida species (C. albicans ATCC 90028 and C. parapsilosis ATCC 22019). MH (Mueller Hinton) broth was used for suspend centrifuged culture of bacteria and yeasts in logarithmic phase to an A630 of 0.01 (~10^6 cfu mL^−1), except for S. pyogenes, L. ivanovii, and E. faecalis that were suspended in their respective growth medium. […] A microplate reader (UVM 340, Asys Hitech) was used to monitor the antimicrobial susceptibility by measuring the change in A630. […] Each experiment was performed in triplicate with positive (0.7% formaldehyde) and negative (without peptide) inhibition controls.
# [2] = system: Pseudomonas aeruginosa ATCC 27853; assay type: cell-based; details: ATCC 27853, 18 h
# From the text: as §1
# [3] = system: Listeria ivanovii Li4pVS2; details: purified peptide; BHI broth, 18 h, 37 °C, A630; average of three independent experiments in triplicate
# From the text: as §1
# HEK-293 cells = test: Cytotoxicity, MTT-based microassay; assay type: cell-based, human; details: purified peptide, HEK-293, 72 h, 37 °C, 12.5–200 µM, mean of three independent experiments in triplicate, read-out: Active concentration (inhibitory concentration 50, IC50)
# Protocol: HEK-293 cells were cultured in DMEM medium, and incubated at 37 °C in a humidified atmosphere of 5% CO2. Cell viability was quantified after peptide incubation using a methylthiazolyldiphenyl-tetrazolium bromide (MTT)-based microassay. […] Then, 10 µL of MTT (5 mg mL^−1 in PBS) was added to each well and the cells were further incubated for 4 h in the dark. The formazan crystals formed by mitochondrial reductases in intact cells are insoluble in aqueous solutions and precipitate. Formazan crystals were dissolved using a solubilization solution (40% dimethylformamide in 2% glacial acetic acid, 16% sodium dodecyl sulfate, pH 4.7) followed by 1 h incubation at 37 °C under shaking (150 rpm). Finally, the absorbance of the resuspended formazan was measured at 570 nm. Data were analyzed with GraphPad Prism® 5.0 software to determine the inhibitory concentration 50 (IC50), which corresponds to the peptide concentration producing 50% cell death. Results were expressed as the mean of three independent experiments performed in triplicate.
# [4] = system: Candida parapsilosis ATCC 22019; assay type: cell-based; details: ATCC 22019, 18 h
# From the text: as §1
# [5] = system: P. aeruginosa H1001 (fliC::luxCDABE); assay type: cell-based, Pseudomonas aeruginosa; details: SPOT-synthesized unpurified crude peptide (~70% purity); bioluminescent engineered P. aeruginosa; BM2 medium; 4 h, 37 °C; reduction of luminescence; 200 to 3 μg mL−1 tested
# Protocol: A peptide array composed of 20 peptides (15 guavanins, 4 Pg-AMP1 fragments, and magainin 2) was designed and synthesized by Kinexus Bioinformatics Corporation (Vancouver, BC). Peptides were produced in a standard mass of 80 μg by using cellulose support in SPOT technology. The crude synthetic peptides were obtained from cellulose membrane discs that had already been treated with ammonia gas to release the peptides from the membrane. Peptides were then dissolved overnight in distilled water and subsequently evaluated for their biological activities, as described below.
# The antimicrobial activity of the synthesized peptides was evaluated against an engineered luminescent P. aeruginosa H1001 (fliC::luxCDABE) strain in 96-well microplates. Aqueous solutions of peptides released from the cellulose spots were diluted twofold in BM2 medium [62 mM potassium phosphate buffer pH 7; 2 mM MgSO4; 10 μM FeSO4; 0.4% (wt/vol) glucose] down the eight wells of a 96-well plate, achieving a final volume of 25 μL in each well. Subsequently, 50 μL of overnight culture of P. aeruginosa H1001 (fliC::luxCDABE) were subcultured in 5 mL of fresh LB media and grown until they reached an OD600 of 0.4. This growing bacteria culture was then diluted 4:100 (v/v) into fresh BM2 media and 25 μL of this diluted bacterial culture was transferred to the microplate wells containing 25 μL of peptide solution. The final peptide concentrations tested ranged from 200 to 3 μg mL^−1. The plates were incubated for 4 h at 37 °C with constant shaking at 50 rpm. Luminescence was measured on a Tecan […]luor Plus Microplate Reader (Tecan US, Morrisville, NC). The antimicrobial activity was evaluated by the ability of the peptides to reduce the luminescence of P. aeruginosa-lux strain compared to untreated cells. The AMP magainin 2 and the carbapenem meropenem were used as positive controls and distilled water was used as a negative control.
# [6] = system: Klebsiella pneumoniae ATCC 13883; assay type: cell-based; details: ATCC 13883, 18 h
# From the text: as §1
# E. coli 0157 = test: Antibiofilm assay; assay type: cell-based, Escherichia coli
# Protocol: Overnight cultures of microorganisms [E. coli 0157, methicillin-resistant S. aureus (MRSA), K. pneumoniae 1825971, or C. albicans clinical isolate obtained from a blood culture maintained at LACEN (Laboratório Central de Saúde do Distrito Federal, a Brazilian reference laboratory for clinical isolates in Brasília, Brazil)] grown in LB broth (BD Difco) were diluted 1 in 100 in LB and Todd-Hewitt broth (BD Difco) or BM2 minimal medium [62 mM potassium phosphate buffer, pH 7.0, 7 mM (NH4)2SO4, 2 mM MgSO4, 10 μM FeSO4, 0.5% glucose], and 100 μL per well was added into 96-well round-bottom microplates. Absorbance at 600 nm was used to assess the planktonic cell growth. Non-adherent planktonic cells were removed from microtiter wells and washed twice with deionized water. Adherent cells were stained with 0.1% crystal violet for 20 min. The microplate wells were washed twice with deionized water, air dried, and solubilized with 110 μL of 70% ethanol. […] Biofilm formation was assessed by measuring the absorbance at 600 nm using a microplate reader (Bio-Tek Instruments, Inc., USA). The microdilution method for cationic peptides was used to determine the MIC for planktonic cells. Three biological replicates were performed for each experiment involving eight technical replicates.
structure (smiles),measurement,setting,value
CC[C@H](C)[C@H](NC(=O)[C@H](CCCNC(=N)N)NC(=O)[C@H](Cc1ccc(O)cc1)NC(=O)CNC(=O)[C@H](Cc1ccc(O)cc1)NC(=O)[C@H](CCCNC(=N)N)NC(=O)[C@H](CC(C)C)NC(=O)[C@H](C)NC(=O)[C@H](CCC(N)=O)NC(=O)[C@H](CCC(=O)O)NC(=O)[C@@H](NC(=O)[C@H](CCC(N)=O)NC(=O)[C@H](CCCNC(=N)N)NC(=O)[C@H](CCSC)NC(=O)[C@H](Cc1ccc(O)cc1)NC(=O)[C@H](CCC(N)=O)NC(=O)[C@@H](N)CCCNC(=N)N)[C@@H](C)CC)C(=O)N[C@@H](CO)C(=O)N[C@@H](CCCNC(=N)N)C(=O)N[C@@H](CCCNC(=N)N)C(N)=O [Guavanin 2] (H-RQYMRQIEQALRYGYRISRR-NH2),SYTOX Green influx (membrane permeabilization),E. coli ATCC 25922,only a slow and very small amount of dye influx
same,Active concentration (MIC),[1],6.25 µM
same,Active concentration (MIC),[2],25 µM
same,Active concentration (MIC),[3],50 µM
same,IC50,HEK-293 cells,> 200 µM
same,Active concentration (MIC),[4],≥50 µM
same,MIC,[5],6.25 µg/mL
same,Active concentration (MIC),[6],80 µM
same,antibiofilm activity,E. coli 0157,only able to reduce C. albicans biofilms

# Source: paper PMC5902452, “In silico optimization of a guava antimicrobial peptide enables combinatorial exploration for peptide design” (Nature Communications, 2018)
